In series [1] the test system is HeLa. The experiment in a line: Cytotoxicity against human HeLa cells assessed as cell viability at 20 ug/mL after 48 hrs by neutral red assay. It is filed as cell-based.
Series [2] in a line: Cytotoxicity against golden hamster CER cells assessed as cell viability at 20 ug/mL after 48 hrs by neutral red assay. Type of series: cell-based, Mesocricetus auratus.
Series [3] is described as follows: Cytotoxicity against golden hamster CER cells assessed as cell viability at 100 ug/mL after 48 hrs by neutral red assay. It is filed as cell-based, Mesocricetus auratus.
In series [4] the test system is Vesicular stomatitis virus. The experiment in a line: Antiviral activity against VSV infected in CER cells assessed as reduction in plaque formation at 4 ug/ml after 48 hrs by neutral red assay. Type of series: functional. More on the design: scale not given: the % may be the effect or the level left.
Series [5] deals with HeLa. The experiment in a line: Cytotoxicity against human HeLa cells assessed as cell viability at 100 ug/mL after 48 hrs by neutral red assay. It is filed as cell-based.
The test system of series [6] is Vesicular stomatitis virus. The series is described as follows: Antiviral activity against VSV infected in CER cells assessed as reduction in plaque formation at 0.8 ug/ml after 48 hrs by neutral red assay. Type of series: functional. More on the design: scale not given: the % may be the effect or the level left.
The test system of series [7] is rhinovirus A1B. The experiment in a line: Antiviral activity against HRV1B infected in human HeLa cells assessed as inhibition of virus-induced cytopathicity at 4 ug/ml after 48 hrs. Type of series: functional, Human rhinovirus 1B. More on the design: scale not given: the % may be the effect or the level left. (Cytopathic effects are the visible damage that an infection or toxin causes in cultured cells.)

For series [8], the system named is rhinovirus A1B. The experiment in a line: Antiviral activity against HRV1B infected in human HeLa cells assessed as inhibition of virus-induced cytopathicity at 20 ug/ml after 48 hrs. It is filed as functional, Human rhinovirus 1B. More on the design: scale not given: the % may be the effect or the level left.
Series [9] has as its system Vesicular stomatitis virus. The experiment in a line: Antiviral activity against VSV infected in CER cells assessed as reduction in plaque formation after 48 hrs by neutral red assay. It is filed as functional.
Series [10] deals with Vesicular stomatitis virus. The experiment in a line: Antiviral activity against VSV infected in CER cells assessed as reduction in plaque formation at 20 ug/ml after 48 hrs by neutral red assay. It is filed as functional. More on the design: scale not given: the % may be the effect or the level left.
In series [11] the test system is rhinovirus A1B. The experiment in a line: Antiviral activity against HRV1B infected in human HeLa cells assessed as inhibition of virus-induced cytopathicity at 0.8 ug/ml after 48 hrs. Type of series: functional, Human rhinovirus 1B. More on the design: scale not given: the % may be the effect or the level left.
Series [12] deals with rhinovirus A1B. The experiment in a line: Antiviral activity against HRV1B infected in human HeLa cells assessed as inhibition of virus-induced cytopathicity at 50 ug/ml after 48 hrs. It is filed as functional, Human rhinovirus 1B. More on the design: scale not given: the % may be the effect or the level left.
The subject of series [13] is rhinovirus A1B. The experiment in a line: Antiviral activity against HRV1B infected in human HeLa cells assessed as inhibition of virus-induced cytopathicity at 100 ug/ml after 48 hrs. It is filed as functional, Human rhinovirus 1B. More on the design: scale not given: the % may be the effect or the level left.
For series [14], the system named is Vesicular stomatitis virus. The series is described as follows: Antiviral activity against VSV infected in CER cells assessed as reduction in plaque formation at 50 ug/ml after 48 hrs by neutral red assay. Type of series: functional. More on the design: scale not given: the % may be the effect or the level left.
The test system of series [15] is Vesicular stomatitis virus. The series is described as follows: Antiviral activity against VSV infected in CER cells assessed as reduction in plaque formation at 100 ug/ml after 48 hrs by neutral red assay. It is filed as functional. More on the design: scale not given: the % may be the effect or the level left.

Converted amounts (≈) assume the structure as drawn.

For the compound `C/C=C(\C)C(=O)O[C@H]1[C@H](O[C@]2(C)CC[C@@H]3[C@H]([C@@H]4[C@H](C)CC[C@@H]42)C3(C)C)O[C@H](C)[C@H](O)[C@@H]1O`, the Activity entry is “Non-toxic” with HeLa [1]; “Non-toxic” in series [2]; “Non-toxic” in [3]; 13% in series [4]; “Non-toxic” in the series with HeLa [5]; 0% in series [6]. In addition, the Activity with rhinovirus A1B [7] is reported as 0%; with rhinovirus A1B [8], 0%; in [10], 22%; in the series on rhinovirus A1B [11], 0%. Moreover, in series [9], the MIC50 was more than 20 µg/mL.

Take `CCC(C)C(=O)O[C@H]1[C@H](O[C@]2(C)CC[C@@H]3[C@H]([C@@H]4[C@H](C)CC[C@@H]42)C3(C)C)O[C@H](C)[C@H](O)[C@@H]1O` (some centres undefined): the Activity result in the series with HeLa [1] is given as “Non-toxic”; in [2], “Non-toxic”; in series [3], “Non-toxic”; in series [4], 20%; with HeLa [5], “Non-toxic”; in series [6], 5%. Besides, the Activity with rhinovirus A1B [7] was 0%; in the series with rhinovirus A1B [8], 0%; in series [10], 30%; in the series on rhinovirus A1B [11] it was 0%. Also, in [9], the MIC50 is more than 20 µg/mL.

With `CC(=O)O[C@H]1[C@H](O[C@]2(C)CC[C@@H]3[C@H]([C@@H]4[C@H](C)CC[C@@H]42)C3(C)C)O[C@H](C)[C@H](O)[C@@H]1O`, the Activity entry in the series with HeLa [1] is “Non-toxic”; in [2], “Non-toxic”; in series [3], “Non-toxic”; in series [4] it was 7%; in the series on HeLa [5], “Non-toxic”; in [6] it was 0%. The Activity was determined as 0% in the series on rhinovirus A1B [7], 0% in the series on rhinovirus A1B [8], 10% in [10] and 0% in the series on rhinovirus A1B [11]. Further, the MIC50 in series [9] is more than 20 µg/mL.

In the case of `CC/C(C)=C\C(=O)O[C@H]1[C@H](O[C@]2(C)CC[C@@H]3[C@H]([C@@H]4[C@H](C)CC[C@@H]42)C3(C)C)O[C@H](C)[C@H](O)[C@@H]1O`, the Activity result in the series on HeLa [1] was “Non-toxic”; in series [2] it was “Non-toxic”; in series [3], “Non-toxic”; in series [4] it was 18%; in the series on HeLa [5], “Non-toxic”; in [6] it was 5%. The Activity with rhinovirus A1B [7] is 0%; with rhinovirus A1B [8] it was 0%; in series [10], 22%; in the series with rhinovirus A1B [11], 0%. Also, in [9], the MIC50 is more than 20 µg/mL.

For `CC(C)C(=O)O[C@H]1[C@H](O[C@]2(C)CC[C@@H]3[C@H]([C@@H]4[C@H](C)CC[C@@H]42)C3(C)C)O[C@H](C)[C@H](O)[C@@H]1O`, the Activity entry is given as “Non-toxic” with HeLa [1]; “Non-toxic” in series [2]; “Non-toxic” in series [3]; 0% in series [4]; “Non-toxic” with HeLa [5]; 0% in series [6]. Also, the Activity with rhinovirus A1B [7] is recorded as 0%; in the series with rhinovirus A1B [8] it was 0%; in series [10] it was 9%; with rhinovirus A1B [11] it was 0%. Also, the MIC50 in series [9] was more than 20 µg/mL.

With `C[C@@H]1CC[C@H]2[C@@H]1[C@H]1[C@@H](CC[C@@]2(C)O[C@@H]2O[C@H](C)[C@H](O)[C@H](O)[C@H]2O)C1(C)C`, the Activity result with HeLa [1] was “Non-toxic”; in [2] it was “Non-toxic”; in series [3], “Non-toxic”; in series [4], 19%; in the series on HeLa [5], “Non-toxic”; in series [6], 8%. For the same compound, the Activity in the series on rhinovirus A1B [7] is 0%; with rhinovirus A1B [8], 0%; in series [10] it was 73%; in the series with rhinovirus A1B [11], 0%. In addition, in series [9], the MIC50 worked out at 14 µg/mL (≈ 38 µM).

Regarding `CC(C)[C@@H]1CC[C@@H](C)C23CC[C@@](C)(O[C@@H]4O[C@H](C)[C@H](O)[C@H](O)[C@H]4O)[C@@H]2[C@@H]13` (some centres undefined) [EPICUBEBOL GLYCOSIDE], the Activity in the series on rhinovirus A1B [12] is 0%; in the series on HeLa [1], “Non-toxic”; in series [2], “Non-toxic”; in [3], “Non-toxic”; in [4], 0%; in the series on HeLa [5] it was “Non-toxic”. Besides, the Activity in the series on rhinovirus A1B [13] was found to be 25%; in series [14], 90%; in the series on rhinovirus A1B [7], 0%; in the series with rhinovirus A1B [8] it was 0%; in series [10], 4%; in series [15], 100%. In [9], the MIC50 was 36 µg/mL (≈ 97.7 µM).
